Reference: PMC9608462 (Molecules, 2022)
Like-named read-outs stand apart in the source and are kept apart here.

Experiments:
MCF-7 cells = MCF-7 cells proliferation (Hoechst 33258 DNA fluorescence); format: cell-based, human; details: for DNA level / DNA synthesis of MCF-7 cells: 10^3–10^4 nM
Experimental: The estrogen-stimulated proliferation of MCF-7 cells was performed using Hoechst 33258 DNA staining. […] After 24 h, cells were washed with PBS and kept in the same media for the next 48 h. Then, cells were incubated with tested compounds at concentrations ranging from 10^1 to 10^4 nM for 96 h. E2 at 1 nM and 10 nM was used as a positive control. […] Proliferation was assessed by the fluorometric measurement of DNA. For this purpose, cells were washed with PBS, lysed using EDTA (0.5 mL, […], pH 12.3) at 37 °C for 30 min and neutralized with 10 mM KH2PO4, and then, Hoechst 33258 (1 mg/mL) was added. Excitation at 350 nm and emission at 455 nm was used for fluorescence measurement using Tecan Infinite M Plex microplate reader (Männedorf, Switzerland).

Ishikawa cells = Ishikawa cells proliferation (alkaline phosphatase activity); format: cell-based, human; details: for alkaline phosphatase activity of Ishikawa cells: 10^3–10^4 nM; for alkaline phosphatase activity of Ishikawa cells / alkaline phosphatase activity / proliferation of Ishikawa cells: 72 h; for alkaline phosphatase activity / proliferation of Ishikawa cells: 10–100 nM
Experimental: The estrogen-stimulated proliferation of Ishikawa cells was performed according to Wober and coworkers with some modifications: Ishikawa cells were seeded at a density of 5 × 10^3 cells/well in 96-well plates in phenol red-free DMEM/F12 containing 10% charcoal dextran-treated FBS. After 72 h, cells were washed with PBS and kept in the same media for the next 24 h. Then, the medium was changed, and cells were incubated with the tested compounds at concentrations ranging from 10^1 to 10^4 nM for 72 h. As a positive control, E2 at a concentration of 1 nM was used. […] The treated cells were grown for 72 h. The estrogenic stimulation was evaluated by alkaline phosphatase activity. After incubation, the cells were washed with PBS, and the plates were frozen at −20 °C until analysis. After thawing, the plates were warmed in a water bath up to 22 °C and incubated with the p-Nitrophenyl Phosphate Liquid Substrate System (Sigma-Aldrich). This ready-to-use, single-solution reagent contains p-nitrophenyl phosphate, buffer and the necessary magnesium cations. Alkaline phosphatase releases p-nitrophenol, measured kinetically at 405 nm using plate reader Biotek Instruments, Elx-800, Winooski, VT, USA).

human ERβ = molecular target: T1, human ERβ (Homo sapiens, UniProt Q92731); assay: Fluorescence polarization ER/D22 coactivator-peptide assay, ERβ; format: biochemical; details: for agonistic/antagonistic activity for ERβ: fluorescence polarisation, recombinant receptor; for EC50: recombinant human ERβ, D22 peptide, 1 h
T1 construct: purchased Panvera (Göttingen, Germany)
T1 sequence (Q92731 whole entry): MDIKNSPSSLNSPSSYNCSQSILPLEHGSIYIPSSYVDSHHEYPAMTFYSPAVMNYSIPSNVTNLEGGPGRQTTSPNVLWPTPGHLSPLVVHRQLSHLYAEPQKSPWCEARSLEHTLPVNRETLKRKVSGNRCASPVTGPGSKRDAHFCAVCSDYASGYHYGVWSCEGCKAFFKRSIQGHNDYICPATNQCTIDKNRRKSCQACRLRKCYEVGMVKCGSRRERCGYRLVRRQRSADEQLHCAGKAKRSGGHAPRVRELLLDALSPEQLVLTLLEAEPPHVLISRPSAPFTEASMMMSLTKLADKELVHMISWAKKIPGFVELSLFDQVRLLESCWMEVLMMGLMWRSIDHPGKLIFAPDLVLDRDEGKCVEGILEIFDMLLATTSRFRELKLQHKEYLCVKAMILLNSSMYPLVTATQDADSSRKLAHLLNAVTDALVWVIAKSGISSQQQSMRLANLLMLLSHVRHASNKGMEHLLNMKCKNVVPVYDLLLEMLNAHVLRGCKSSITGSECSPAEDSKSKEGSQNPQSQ
Experimental: (§1) Binding affinities to ERα and ERβ were determined by the dose dependence binding of the test compounds with purified human Erα and Erβ. All chemicals were obtained from Panvera (Göttingen, Germany). The assay was performed according to the protocols recommended by the manufacturer. […] D22 is a coactivator-like peptide containing an LXXLL motif and flanking sequences that resemble known coactivators. Agonist-bound ER (ERα or ERβ) can recruit D22, resulting in a more significant fraction of bound D22 and a larger polarization value. Antagonist-bound ER has a lower affinity for D22, yielding a more significant fraction of unbound D22 and a lower polarization value. Recombinant human ERα or ERβ were incubated with the tested compounds for one hour. Fluorescence polarization was measured using a Tecan Ultra Evolution multiwell plate reader (Tecan, Crailsheim, Germany) at excitation wavelength 540 nm and emission wavelength 580 nm. […] The EC50 values were derived by logarithmic curve-fitting from binding curves using GraphPad Prism 8.4.3. GraphPad Software, San Diego, California, USA. EC50 was determined from at least three independent experiments.

human ERα = molecular target: T2, human ERα (Homo sapiens, UniProt P03372); assay: Fluorescence polarization ER/D22 coactivator-peptide assay, ERα; format: biochemical; details: for agonistic/antagonistic activity for ERα: fluorescence polarisation, recombinant receptor; for EC50: recombinant human ERα, D22 peptide, 1 h
T2 construct: purchased Panvera (Göttingen, Germany)
T2 sequence (P03372 1-595): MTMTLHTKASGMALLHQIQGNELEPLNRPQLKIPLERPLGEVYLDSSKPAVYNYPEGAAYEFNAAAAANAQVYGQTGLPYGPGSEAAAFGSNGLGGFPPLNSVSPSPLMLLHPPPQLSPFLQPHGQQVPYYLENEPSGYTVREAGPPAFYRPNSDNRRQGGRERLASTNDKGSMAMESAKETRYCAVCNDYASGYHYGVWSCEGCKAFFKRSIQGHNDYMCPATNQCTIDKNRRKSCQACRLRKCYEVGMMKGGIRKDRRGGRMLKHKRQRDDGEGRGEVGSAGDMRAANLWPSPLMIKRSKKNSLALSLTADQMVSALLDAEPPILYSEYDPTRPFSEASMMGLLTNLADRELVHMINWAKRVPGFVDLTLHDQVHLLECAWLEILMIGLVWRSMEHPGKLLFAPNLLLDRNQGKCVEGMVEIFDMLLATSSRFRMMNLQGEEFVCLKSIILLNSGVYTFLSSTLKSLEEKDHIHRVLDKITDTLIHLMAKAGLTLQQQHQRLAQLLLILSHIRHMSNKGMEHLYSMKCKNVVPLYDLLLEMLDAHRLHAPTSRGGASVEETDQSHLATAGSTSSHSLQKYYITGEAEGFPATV
Experimental: as §1

[1] = test system: MCF-7 cells transfected with luciferase reporter gene; details: read-out: EC50 of luciferase expression; cited from earlier work
[2] = test system: human endometrial adenocarcinoma cells (Ishikawa); details: E2-induced; cited from earlier work
[3] = test system: human endometrial adenocarcinoma cells (Ishikawa); details: read-out: IC50, suppression of E2-induced expression of alkaline phosphatase; cited from earlier work
[4] = 100–1000 nM (as in conclusions)

agonistic/antagonistic activity for ERβ (human ERβ)	EC50 (human ERβ; read-out: ERβ Agonist EC50) [nM]	agonistic/antagonistic activity for ERα (human ERα)	EC50 (human ERα; read-out: ERα Agonist EC50) [nM]	EC50 (human ERβ; read-out: ERβ antagonist EC50) [nM]	EC50 (human ERα; read-out: ERα antagonist EC50) [nM]	Structure (SMILES)	DNA level / DNA synthesis of MCF-7 cells (MCF-7 cells)	alkaline phosphatase activity of Ishikawa cells (Ishikawa cells)	alkaline phosphatase activity / proliferation of Ishikawa cells (Ishikawa cells)	EC50 [1] [nM]	concentration range suppressing progesterone receptor (PR) mRNA levels [2] [µM]	IC50 [3] [nM]	proliferation of MCF-7 cells (MCF-7 cells; [4])	proliferation of Ishikawa cells (Ishikawa cells; [4])
could act as ERβ agonists	8.1 ± 1.6	agonistic activity	108 ± 10.2	–	–	Oc1ccc(C=Cc2cc(O)c(O)c(O)c2)cc1 [Compound M8, 3,4,4′,5-tetrahydroxystilbene]	increased DNA synthesis	significantly lower compared with the control	stimulated the alkaline phosphatase	–	–	–	–	–
–	–	antagonistic activity	–	> 5000	1010 ± 30.5	Oc1cc(O)cc(C=Cc2cc(O)c(O)c(O)c2)c1 [Compound M11, 3,3′,4,5,5′-pentahydroxystilbene]	significantly lower compared with the control	significantly lower compared with the control	stimulated the alkaline phosphatase	–	–	–	–	–
did not show an antagonistic effect	–	antagonistic activity	–	> 5000	110 ± 15.5	Oc1cc(C=Cc2cc(O)c(O)c(O)c2)cc(O)c1O [Compound M12, 3,3′,4,4′,5,5′-hexahydroxystilbene]	–	significantly lower compared with the control	stimulated the alkaline phosphatase	–	–	–	–	–
–	–	agonistic activity	21.2 ± 2.2	–	–	Oc1ccc(/C=C/c2cc(O)cc(O)c2)cc1 [resveratrol]	stimulated an increase in the level of the assessed markers	stimulated an increase in the level of the assessed markers	–	5000 to 10000	5 to 15	2300	stimulated the proliferation	stimulated the proliferation
